Consider two compounds from patent publication US5981573A, “N,N-disubstituted amic acid derivatives” (Banyu Pharmaceutical Co., Ltd., priority 1996, dated 1999).

For test [1], the system named is farnesyl-modification of Ras protein in NIH3T3 cells transformed by activated ras gene. Put plainly: Inhibitory activities against farnesyl-modification of Ras protein in NIH3T3 cells transformed by activated ras gene. It is filed as cell-based. To be noted: Mus musculus, 24 hours, read-out: 50% inhibitory concentrations (IC50) against farnesyl-modification of Ras protein. As for the experimental part:
PHARMACOLOGICAL TEST EXAMPLE 2 (Inhibitory activities against farnesyl-modification of Ras protein)
Using the compounds of the present invention, inhibitory activities against farnesyl-modification of Ras protein in NIH3T3 cells transformed by activated ras gene, were measured.
The NIH3T3 cells transformed by activated ras gene, were seeded on a culture plate and cultured for 3 days. Then, a compound of the present invention in a predetermined concentration was added to the culture. In accordance with the method disclosed in J. Biol. Chem., vol. 268, p. 18415 (1993), the cells were cultured for 24 hours and then taken off from the plate, and the cells were dissolved. After centrifugal separation for 5 minutes under 12000 g, the supernatant was used as a cell extract. The cell extract was subjected to SDS polyacrylamide gel electrophoresis to separate farnesyl-modified Ras protein and non-farnesyl-modified Ras protein. The protein on the gel was transferred onto a nitrocellulose membrane, and an anti-Ras protein antibody was reacted as a probe (primary antibody reaction). An anti-primary antibody, a peroxidase inclusion (secondary antibody), was reacted, and then Ras protein was detected by a chemical fluorescence enhancing kit. The proportion of non-farnesyl-modified Ras protein was quantified by a densitometer and taken as the inhibitory activity. […]

Test [2] concerns the target T1, protein-farnesyl transferase (PFT) (Rattus norvegicus, UniProt Q02293+Q04631).
T1 construct: PFT derived from rat brain (Q-sepharose fraction); from tissue; host or cells: rat brain (soluble fraction, 30-50% ammonium sulfate cut, Q-Sepharose fraction)
Kind of test: Inhibitory activities against protein-farnesyl transferase (PFT). It is filed as biochemical. To be noted: PFT derived from rat brain; prenyl acceptor H-ras protein or biotin-added Lys-Thr-Ser-Cys-Val-Ile-Met; 37° C., 20 minutes; read-out: 50% inhibitory concentrations (IC50) against PFT activities. As for the experimental part:
Pharmacological Test 1 (Inhibitory activities against protein-farnesyl transferase)
PFT was separated in such a manner that a soluble fraction of rat s brain was fractionated by means of 30%-50% saturated ammonium sulfate, further dialyzed and then subjected to column chromatography by Q-sepharose™ (manufactured by Pharmacia) (Reiss et al., Cell, vol. 62, pp. 81-88 (1990)).
(2) Method for measuring PFT activities
Measurement of PFT activities was conducted by using, as a prenyl acceptor, H-ras protein or a peptide corresponding to the C-terminal 7 amino acid residues of K-rasB protein which had biotin added to the N-terminal (biotin-added Lys-Thr-Ser-Cys-Val-Ile-Met) and, as a prenyl donor, [^3 H]-labeled farnesyl pyrophosphate (FPP) (Reiss et al., Methods: A Companion to Methods in Enzymology, vol. 1, No. 3, pp. 241-245 (1990)). […]
The enzymatic reaction product containing H-ras protein as the prenyl acceptor, was analyzed by SDS-PAGE (sodium dodecyl sulfate/polyacrylamide gel electrophoresis). […]
The measurement of PFT activities using H-ras protein as the prenyl receptor, was also analyzed by a rapid separate method. […]

Molecules are shown by their SMILES.

`CCOC(=O)C(CC(=O)O)=C(O)C(=O)N(CC#Cc1ccccc1)[C@H](C)[C@H](Cc1ccc(C(=O)Nc2ccccc2)o1)c1ccc2c(c1)OCO2` (relative stereo) [Example 17, 3-(ethoxycarbonyl)-4-hydroxy-4-[N [(1RS,2RS)-1-methyl-2-(3,4-methylenedioxyphenyl)-3-{5-(phenylcarbamoyl)-2-furyl}propyl]-N-(3-phenyl-2-propynyl)carbamoyl]-3-butenoic acid]: the IC50 stood at 4.3 nM in test [1] and 1.7 nM in test [2].

In the case of `C[C@H]([C@H](Cc1ccc(C(=O)Nc2ccccc2)o1)c1ccc2c(c1)OCO2)N(C/C=C/c1ccccc1)C(=O)C(O)=C(CC(=O)O)C(=O)OC(C)(C)C` [Example 1, 3-(tert-butoxycarbonyl)-4-hydroxy-4-[N-[(1R,2R)-1-methyl-2-(3,4-methylenedioxyphenyl)-3-{5-(phenylcarbamoyl)-2-furyl}propyl]-N-{(E)-3-phenyl-2-propenyl}carbamoyl]-3-butenoic acid], the IC50 turned out to be 1.3 nM in test [1] and 0.74 nM in test [2].
